Laboratory results reported in patent publication US10947598B2, “Methods for determining the metabolic status of lymphomas” (INSERM (Institut National de la Sante et de la Recherche …, priority 2015, dated 2021).
“Also recorded” adds a separate entry of the source.

Tests used:
[1] = tested on: Eμ-Myc-gapdh^low lymphoma; assay: Animal study: lymphoma transfer of Eμ-Myc-gapdh^low cells into syngeneic C57BL/6 mice; assay type: in vivo, mouse; settings: Eμ-Myc-gapdh^low-bearing mice; 200 mg/kg/day phenformin in drinking water for 12 days; FIG. 5
Experimental: Lymphoma transfer of a isolated Eμ-Myc clone was realized into syngeneic, nontransgenic, 6-week-old C57BL/6 females by tail vein injection of 0.1×10^6 viable Eμ-Myc lymphoma cells per recipient mouse (in 150 μL of sterile PBS). Phenformin treated group received 200 mg/kg/day phenformin in the drinking water for 12 days. Phenformin powder was dissolved every two days in the drinking water, taking into account the mouse body weight and the volume of water consumed each day. Untreated mice (controls) received water (n=10 mice/group). Food was given ad libitum. The first signs of the pathology were determined by inguinal lymph node palpation and analyses of blood sample with Hemavet 950FS (Drew Scientific, INC, France). Progression-free survival was determined by the time between the iv injection of the cell and the appearance of enlarged lympho nodes. Lymphoma-bearing animals were killed by cervical dislocation as soon as they presented signs of illness. Upon sacrifice all lymph node tumors and spleen are immediately collected and weighted. All mice were maintained in specific pathogen-free conditions and experimental procedures were approved by the Institutional Animal Care and Use Committee and by the regional ethics committee (PEA232 from Comité Institutionnel d'Ethique Pour l'Animal de Laboratoire—AZUR).

[2] = tested on: Eμ-Myc cells (mouse primary B lymphoma cells), gapdh^low vs gapdh^high; assay: Proliferation assay (proliferation index, DAPI exclusion); assay type: cell-based; settings: phenformin 50 μM, 24 and 48 hours
Experimental: Mouse primary Eμ-Myc clones (B lymphoma cells) obtained from lymphomas of different C57BL/6 Eμ-Myc transgenic mice were isolated as described previously (Lindemann et al., 2007) and maintained in DMEM supplemented with 10% FCS, 2-mercaptoethanol (50 μM), L-asparagin (0.37 mM) and HEPES (pH 7.4, 10 mM). C57BL/6 Eμ-Myc transgenic mice were purchased from the Jackson Laborator.
Eμ-Myc cells (0.2×10^6) were seeded in 96 well-plates in the presence or absence of 50 μM of Phenformin for 0, 24 and 48 hours. Number of living and dead cells was counted using DAPI staining exclusion by flow cytometry (MACSQuant Analyser, Miltenyi Biotec). Proliferation index were calculated by dividing the number of living cells obtained for each day by the one obtained the day of seeding (day 0).

[3] = tested on: Eμ-Myc cells (mouse primary B lymphoma cells), gapdh^low vs gapdh^high; assay: Cell death assay (DAPI staining, flow cytometry); assay type: cell-based
Experimental: C57BL/6 Eμ-Myc transgenic mice were purchased from the Jackson Laborator.
Eμ-Myc cells (0.2×10^6) were seeded in 96 well-plates in the presence or absence of 200 μM of phenformin (Sigma) for 24 hours and 48 hours. Cells were then labeled with DAPI (Molecular Probes; 0.5 μg/mL) and analyzed immediately by flow cytometry using a MACSQuant Analyzer (Miltenyi Biotec).

Row | Compound | B lymphoma progression (progression-free survival, size of axillary lymphomas and spleen) [1] | Sensitivity to phenformin (proliferation index) ([2]; Eμ-Myc-gapdh^high cells silenced for gapdh (shgapdh) vs control, FIG. 4B) | Sensitivity to phenformin (proliferation index) ([2]; Eμ-Myc-gapdh^low vs Eμ-Myc-gapdh^high clones, FIG. 3B) | Sensitivity to phenformin (cell death) ([3]; Eμ-Myc-gapdh^high cells silenced for gapdh (shgapdh) vs control, phenformin 100 μM, 24 and 48 hours, FIG. 4A) | Sensitivity to phenformin (cell death) ([3]; Eμ-Myc-gapdh^low vs Eμ-Myc-gapdh^high clones, phenformin 200 μM, 24 hours, FIG. 3A) | Sensitivity to L-asparaginase (cell death) ([3]; Eμ-Myc-gapdh^high cells silenced for gapdh (shgapdh) vs control, L-asparaginase 0.3 UI/ml, 24 hours, FIG. 4C) | Sensitivity to L-asparaginase (cell death) ([3]; Eμ-Myc-gapdh^low vs Eμ-Myc-gapdh^high clones, L-asp 0.3 UI/ml, 1.0 UI/ml, 24 hours, FIG. 3C)
1 | [H]/N=C(/N)N/C(=N/[H])NCCc1ccccc1 [phenformin] | reduced | more sensitive | more sensitive | more sensitive; also recorded: sensitizes | more sensitive | – | –
2 | L-asparaginase | – | – | – | – | – | more sensitive; also recorded: sensitizes | more sensitive
